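Assay format: 96-well plates, 48-hour exposure. At the GI50, growth is halved.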 Active and inactive are the calls of the source. Rule as the data show it: active = GI50 up to about 1.1 µM and inactive = higher.
Assays:
Assay in all cases: growth of human tumour cells (NCI), 48 h
[1] = tested on: UO-31
[2] = tested on: SF-268
[3] = tested on: UACC-62
[4] = tested on: Malme-3M
[5] = tested on: IGROV-1
[6] = tested on: CAKI-1
[7] = tested on: Hs-578T
[8] = tested on: ACHN
[9] = tested on: SK-MEL-5
[10] = tested on: SR
[11] = tested on: SK-OV-3
[12] = tested on: CCRF-CEM
[13] = tested on: LOX IMVI
[14] = tested on: HL-60
[15] = tested on: COLO 205
[16] = tested on: 786-0
[17] = tested on: SW-620
[18] = tested on: SNB-75
[19] = tested on: MOLT-4
[20] = tested on: OVCAR-4
[21] = tested on: K562
[22] = tested on: MDA-MB-435
[23] = tested on: SK-MEL-28
[24] = tested on: A549
[25] = tested on: NCI-H522
[26] = tested on: NCI-H460
[27] = tested on: MDA-MB-231
[28] = tested on: RPMI-8226
[29] = tested on: SF-295
[30] = tested on: SF-539
[31] = tested on: OVCAR-3
[32] = tested on: BT-549
[33] = tested on: MCF7
[34] = tested on: T47D
[35] = tested on: NCI-H226
[36] = tested on: OVCAR-8
[37] = tested on: UACC-257
[38] = tested on: U-251
[39] = tested on: HOP-92
[40] = tested on: RXF 393
[41] = tested on: HCT-116
[42] = tested on: A498
[43] = tested on: OVCAR-5
[44] = tested on: SK-MEL-2
[45] = tested on: HT-29
[46] = tested on: KM12
[47] = tested on: SN12C
[48] = tested on: TK-10
[49] = tested on: M14
[50] = tested on: PC-3
[51] = tested on: EKVX
[52] = tested on: HCT-15
[53] = tested on: NCI-H23
[54] = tested on: NCI/ADR-RES
[55] = tested on: DU-145
[56] = tested on: HOP-62
[57] = tested on: SNB-19

In the case of `C[N+]1(CCN=C=NC2CCCCC2)CCOCC1`, the GI50 [1] is reported as > 100 µM (inactive), the GI50 [2] is reported as > 100 µM (inactive) and the GI50 [3] is reported as > 100 µM (inactive). For the same compound, the GI50 [4] was > 100 µM (inactive), the GI50 [5] was > 100 µM (inactive) and the GI50 [6] was > 100 µM (inactive). For the same compound, the GI50 [7] was > 100 µM (inactive), the GI50 [8] was > 100 µM (inactive) and the GI50 [9] was > 100 µM (inactive). The GI50 [10] was > 100 µM (inactive), the GI50 [11] was > 100 µM (inactive) and the GI50 [12] was > 100 µM (inactive). The GI50 [13] was > 100 µM (inactive), the GI50 [14] was > 100 µM (inactive) and the GI50 [15] was > 100 µM (inactive). For the same compound, the GI50 [16] was > 100 µM (inactive), the GI50 [17] was > 100 µM (inactive) and the GI50 [18] was > 100 µM (inactive). The GI50 [19] was > 100 µM (inactive), the GI50 [20] was > 100 µM (inactive) and the GI50 [21] was > 100 µM (inactive). The GI50 [22] was > 100 µM (inactive), the GI50 [23] was > 100 µM (inactive) and the GI50 [24] was > 100 µM (inactive). For the same compound, the GI50 [25] was > 100 µM (inactive), the GI50 [26] was > 100 µM (inactive) and the GI50 [27] was > 100 µM (inactive). The GI50 [28] was > 100 µM (inactive), the GI50 [29] was > 100 µM (inactive) and the GI50 [30] was > 100 µM (inactive). The GI50 [31] was > 100 µM (inactive), the GI50 [32] was > 100 µM (inactive) and the GI50 [33] was > 100 µM (inactive). For the same compound, the GI50 [34] was > 100 µM (inactive), the GI50 [35] was > 100 µM (inactive) and the GI50 [36] was > 100 µM (inactive). For the same compound, the GI50 [37] was > 100 µM (inactive), the GI50 [38] was > 100 µM (inactive) and the GI50 [39] was > 100 µM (inactive). For the same compound, the GI50 [40] was > 100 µM (inactive), the GI50 [41] was > 100 µM (inactive) and the GI50 [42] was > 100 µM (inactive). The GI50 [43] was > 100 µM (inactive), the GI50 [44] was > 100 µM (inactive) and the GI50 [45] was > 100 µM (inactive). The GI50 [46] was > 100 µM (inactive), the GI50 [47] was 22.9 µM (inactive) and the GI50 [48] was > 100 µM (inactive). The GI50 [49] was > 100 µM (inactive), the GI50 [50] was > 100 µM (inactive) and the GI50 [51] was > 100 µM (inactive). For the same compound, the GI50 [52] was over 100 µM, the GI50 [53] was > 100 µM (inactive) and the GI50 [54] was > 100 µM (inactive). For the same compound, the GI50 [55] was > 100 µM (inactive), the GI50 [56] was > 100 µM (inactive) and the GI50 [57] was > 100 µM (inactive).
